Data as given in patent US4385055A, “2-Acetyl-and 2-propionylpyridine thiosemicarbazones as antimalarials” (The United States of America as represented by the …, priority 1981, dated 1983).
Converted amounts (≈) assume the structure as drawn. Where two headings read alike, the source gives them in different places.

Legend:
Group D Enterococcus = test: Macro broth dilution MIC, Group D Enterococcus isolates (Test 1); type: cell-based; conditions: 24 h, read after 24 hours, read-out: Minimum Inhibitory Concentration
Protocol: (§1) Compounds were tested against five isolates of Staphylococcus aureus and five isolates of Group D Enterococcus. The bacteria used were isolated from patients at the Walter Reed Army Medical Center, Washington, D.C. The test procedure used was the macro broth dilution method in duplicate as outlined by J. C. Sherris on pages 414-415 in "Manual of Clinical Microbiology," 2nd ed., E. Lennette, E. H. Spaulding, and J. P. Truant, Ed. (American Society for Microbiology, Washington, D.C., 1974). Each compound was dissolved in DMSO (12.8 mg/mL) and then diluted with Mueller-Hinton broth to obtain the desired dilutions. Tubes containing the highest quantities of DMSO with no compound present were run as controls.

[1] = system: Mycobacterium intracellulare; test: Broth dilution MIC, Mycobacterium intracellulare strains (Test 6); type: cell-based; conditions: read-out: Minimum Inhibitory Concentration
Staphylococcus aureus = test: Macro broth dilution MIC, Staphylococcus aureus isolates (Test 1); type: cell-based; conditions: 24 h, read after 24 hours, read-out: Minimum Inhibitory Concentration
Protocol: as §1

Mycobacterium smegmatis = test: MIC against Mycobacterium smegmatis strains (Test 4); type: cell-based; conditions: Mycolicibacterium smegmatis, read-out: Minimum Inhibitory Concentration
Protocol: Compounds were tested against four strains of Mycobacterium smegmatis. The test procedure used was as mentioned by N. E. Morrison [Int. J. of Leprosy 39:34-43 (1971)]. The strain numbers refer to Mycobacterium smegmatis ATCC 607, a DDS-resistant daughter strain, a Rifampin-resistant daughter strain, and a Clofazimine-resistant daughter strain, respectively.

[2] = system: Plasmodium berghei KBG 173; test: In vivo antimalarial activity in mice (Test 5); design: key to In vivo Antimalarial Activity: C: Mice surviving 60 days are considered cured; Active: Activity is defined as a 100% increase in the mean survival time of the treated mice compared to the control group; Toxicity is defined as a decrease in the mean survival time of the treated mice as compared to the control group; conditions: for ED50: Plasmodium berghei, computed estimate of the dose required to cure 50% of the mice; for In vivo Antimalarial Activity: mice, C = Cure (cured/treated mice)
Protocol: Compounds were tested against Plasmodium berghei KBG 173 malaria in mice following the procedure described by T. S. Osdene, P. B. Russell, and L. Rane [J. Med. Chem. 10:431-434 (1967)]. Five mice were tested at each dosage level. Mice surviving 60 days are considered cured. Toxicity is defined as a decrease in the mean survival time of the treated mice as compared to the control group. Activity is defined as a 100% increase in the mean survival time of the treated mice compared to the control group.

Neisseria gonorrhoeae = test: Agar dilution MIC, Neisseria gonorrhoeae isolates (Test 3); type: cell-based; conditions: 24 h, read-out: Minimum Inhibitory Concentration
Protocol: Compounds were tested against six Neisseria gonorrhoeae isolates. The bacteria used were provided by the Department of Bacterial Diseases of the Walter Reed Army Institute of Research. The test procedure used was the agar dilution method in duplicate as outlined by J. C. Sherris on pages 411-412 (loc. cit.). GC Medium (Difco) with a 2% defined supplement added as described by D. S. Kellogg et al. [J. Bact. 85:1274-1279 (1963)] was used as the media. The compounds were dissolved in DMSO (1.0 mg/mL), diluted with GC broth (GC Medium without agar) to the appropriate concentration, and added to the GC Medium at 55°-56° C. The latter was then poured and allowed to solidify. A penicillin standard was also prepared with initial dilutions as described by J. C. Sherris followed by dilutions with GC broth and addition to the GC Medium at 55°-56° C. as above. The inoculum was 1:200 GC broth dilution of a suspension of colony isolates after the suspension was adjusted visually to the turbidity standard described by J. M. Matsen and A. L. Barr on page 422 in "Manual of Clinical Microbiology," 2nd ed., E. Lennette, E. H. Spaulding, and J. P. Truant, Ed. (American Society for Microbiology, Washington, D.C., 1974). The plates were inoculated with a replicator and incubated at 37° C. under 5-10% carbon dioxide.

Neisseria meningitidis = test: Macro broth dilution MIC, Neisseria meningitidis isolates (Test 2); type: cell-based; conditions: Neisseria meningitidis, 24 h, read after 24 hours, read-out: Minimum Inhibitory Concentration
Protocol: Compounds were tested against five isolates of Neisseria meningitidis. The bacterial isolates were provided by the Department of Bacterial Diseases of the Walter Reed Army Institute of Research. The test procedure used was the macro broth dilution method in duplicate outlined by J. C. Sherris on pages 414-415 (loc. cit.). The test compounds and controls were prepared as in Test 1 above. Ampicillin and penicillin standards were initially diluted as described by J. C. Sherris on pages 411-412 (loc. cit.) followed by dilution with Mueller-Hinton broth. The tubes were incubated at 37° C. under 5-10% carbon dioxide.

[3] = Group D Enterococcus isolate II
[4] = Group D Enterococcus isolate III
[5] = Group D Enterococcus isolate IV
[6] = Mycobacterium intracellulare strain I
[7] = Mycobacterium intracellulare strain II
[8] = Mycobacterium intracellulare strain III
[9] = Mycobacterium intracellulare strain IV
[10] = Mycobacterium intracellulare strain V
[11] = Mycobacterium intracellulare strain VI
[12] = Staphylococcus aureus isolate I
[13] = Staphylococcus aureus isolate II
[14] = Staphylococcus aureus isolate III
[15] = Staphylococcus aureus isolate IV
[16] = Staphylococcus aureus isolate V
[17] = Neisseria gonorrhoeae isolate 135, read after 24 hours
[18] = Neisseria gonorrhoeae isolate 161, read after 24 hours
[19] = Neisseria gonorrhoeae isolate 278, read after 24 hours
[20] = Neisseria gonorrhoeae isolate 455, read after 24 hours
[21] = Neisseria gonorrhoeae isolate 456, read after 24 hours
[22] = Neisseria gonorrhoeae isolate 602, read after 24 hours
[23] = Neisseria meningitidis isolate 7957
[24] = Neisseria meningitidis isolate 7990
[25] = Neisseria meningitidis isolate 8005
[26] = Neisseria meningitidis isolate 8006
[27] = Neisseria meningitidis isolate 8011

Compound	MIC (Group D Enterococcus; Group D Enterococcus isolate I) [µg/mL]	MIC (Group D Enterococcus; [3]) [µg/mL]	MIC (Group D Enterococcus; [4]) [µg/mL]	MIC (Group D Enterococcus; [5]) [µg/mL]	MIC (Group D Enterococcus; Group D Enterococcus isolate V) [µg/mL]	MIC [1, 6] [µg/mL]	MIC [1, 7] [µg/mL]	MIC [1, 8] [µg/mL]	MIC [1, 9] [µg/mL]	MIC [1, 10] [µg/mL]	MIC [1, 11] [µg/mL]	MIC (Staphylococcus aureus; [12]) [µg/mL]	MIC (Staphylococcus aureus; [13]) [µg/mL]	MIC (Staphylococcus aureus; [14]) [µg/mL]	ED50 [2] [mg/kg]	MIC (Neisseria meningitidis; [23]) [µg/mL]	MIC (Neisseria meningitidis; [24]) [µg/mL]	MIC (Neisseria meningitidis; [25]) [µg/mL]	MIC (Neisseria meningitidis; [26]) [µg/mL]	MIC (Neisseria meningitidis; [27]) [µg/mL]	also measured
CC(=NNC(=S)NC12CC3CC(CC(C3)C1)C2)c1ccccn1 [S, 2-Acetylpyridine 4-(1-adamantyl)-3-thiosemicarbazone]	2 (≈ 6.09 µM)	1 (≈ 3.04 µM)	2 (≈ 6.09 µM)	2 (≈ 6.09 µM)	2 (≈ 6.09 µM)	10 (≈ 30.4 µM)	1 (≈ 3.04 µM)	1 (≈ 3.04 µM)	10 (≈ 30.4 µM)	10 (≈ 30.4 µM)	10 (≈ 30.4 µM)	2 (≈ 6.09 µM)	2 (≈ 6.09 µM)	4 (≈ 12.2 µM)							MIC (Staphylococcus aureus; [15]): 2 µg/mL (≈ 6.09 µM); MIC (Staphylococcus aureus; [16]): 1 µg/mL (≈ 3.04 µM)
CCC1CCCCN1C(=S)NN=C(C)c1ccccn1 (centres unmarked) [AA, 2-Ethylpiperidine-1-thiocarboxylic acid 2-[1-(2-pyridyl)ethylidene]hydrazide]						10 (≈ 34.4 µM)	1 (≈ 3.44 µM)	1 (≈ 3.44 µM)	1 (≈ 3.44 µM)	10 (≈ 34.4 µM)	10 (≈ 34.4 µM)				113						MIC (Mycobacterium smegmatis; ATCC607, Mycobacterium smegmatis strain I (ATCC 607)): 5 µg/mL (≈ 17.2 µM); MIC (Mycobacterium smegmatis; Mycobacterium smegmatis strain II (DDS-resistant daughter strain)): 10 µg/mL (≈ 34.4 µM); MIC (Mycobacterium smegmatis; Mycobacterium smegmatis strain III (Rifampin-resistant daughter strain)): 10 µg/mL (≈ 34.4 µM); MIC (Mycobacterium smegmatis; Mycobacterium smegmatis strain IV (Clofazimine-resistant daughter strain)): 10 µg/mL (≈ 34.4 µM)
CC(=NNC(=S)N1CCN(c2ccccn2)CC1)c1ccccn1 [V, 1,4-Diaza-4-(2-pyridyl)cyclohexane-1-thiocarboxylic acid 2-[1-(2-pyridyl)ethylidene]hydrazide]															45	0.062 (≈ 0.182 µM)	0.125 (≈ 0.367 µM)	0.125 (≈ 0.367 µM)	0.125 (≈ 0.367 µM)	0.25 (≈ 0.734 µM)	MIC (Neisseria gonorrhoeae; [17]): 0.016 µg/mL (≈ 0.047 µM); MIC (Neisseria gonorrhoeae; [18]): < 0.008 µg/mL; MIC (Neisseria gonorrhoeae; [19]): 0.031 µg/mL (≈ 0.0911 µM); MIC (Neisseria gonorrhoeae; [20]): 0.016 µg/mL (≈ 0.047 µM); MIC (Neisseria gonorrhoeae; [21]): 0.016 µg/mL (≈ 0.047 µM); MIC (Neisseria gonorrhoeae; [22]): 0.016 µg/mL (≈ 0.047 µM); In vivo Antimalarial Activity ([2]; Dosage Level 640 mg/kg): Toxic
CC(=NNC(=S)N1CC2CCC(CC2)C1)c1ccccn1 [L, 3-Azabicyclo[3.2.2]nonane-3-thiocarboxylic acid 2-[1-(2-pyridyl)ethylidene]hydrazide]	2 (≈ 6.61 µM)	2 (≈ 6.61 µM)	2 (≈ 6.61 µM)	2 (≈ 6.61 µM)	2 (≈ 6.61 µM)	10 (≈ 33.1 µM)	1 (≈ 3.31 µM)	1 (≈ 3.31 µM)	0.1 (≈ 0.331 µM)	0.1 (≈ 0.331 µM)	0.1 (≈ 0.331 µM)	1 (≈ 3.31 µM)	1 (≈ 3.31 µM)	1 (≈ 3.31 µM)	59	0.031 (≈ 0.102 µM)	0.062 (≈ 0.205 µM)	< 0.031	0.062 (≈ 0.205 µM)	0.125 (≈ 0.413 µM)	MIC (Neisseria gonorrhoeae; [17]): 0.031 µg/mL (≈ 0.102 µM); MIC (Neisseria gonorrhoeae; [18]): 0.016 µg/mL (≈ 0.0529 µM); MIC (Neisseria gonorrhoeae; [19]): 0.031 µg/mL (≈ 0.102 µM); MIC (Neisseria gonorrhoeae; [20]): 0.031 µg/mL (≈ 0.102 µM); MIC (Neisseria gonorrhoeae; [21]): 0.031 µg/mL (≈ 0.102 µM); MIC (Neisseria gonorrhoeae; [22]): 0.031 µg/mL (≈ 0.102 µM); MIC (Staphylococcus aureus; [15]): 1 µg/mL (≈ 3.31 µM); MIC (Staphylococcus aureus; [16]): 1 µg/mL (≈ 3.31 µM)
CCOC(=O)N1CCN(C(=S)NN=C(C)c2ccccn2)CC1 [Compound I, 1,4-Diaza-4-carboethoxycyclohexane-1-thiocarboxylic acid 2-[1-(2-pyridyl)ethylidene]hydrazide]																					In vivo Antimalarial Activity ([2]; Dosage Level 10 mg/kg): Active; In vivo Antimalarial Activity ([2]; Dosage Level 20 mg/kg): Active; In vivo Antimalarial Activity ([2]; Dosage Level 160 mg/kg): Toxic; In vivo Antimalarial Activity ([2]; Dosage Level 640 mg/kg): Toxic
CC(=NNC(=S)N1CCCCCC1)c1ccccn1 [H, 1-Azacycloheptane-1-thiocarboxylic acid 2-[1-(2-pyridyl)ethylidene]hydrazide]	4 (≈ 14.5 µM)	4 (≈ 14.5 µM)	4 (≈ 14.5 µM)	4 (≈ 14.5 µM)	4 (≈ 14.5 µM)	1 (≈ 3.62 µM)	1 (≈ 3.62 µM)	1 (≈ 3.62 µM)	1 (≈ 3.62 µM)	1 (≈ 3.62 µM)	1 (≈ 3.62 µM)				72	0.031 (≈ 0.112 µM)	0.062 (≈ 0.224 µM)	0.062 (≈ 0.224 µM)	0.125 (≈ 0.452 µM)	0.062 (≈ 0.224 µM)	MIC (Neisseria gonorrhoeae; [17]): 0.031 µg/mL (≈ 0.112 µM); MIC (Neisseria gonorrhoeae; [18]): 0.016 µg/mL (≈ 0.0579 µM); MIC (Neisseria gonorrhoeae; [19]): 0.031 µg/mL (≈ 0.112 µM); MIC (Neisseria gonorrhoeae; [20]): 0.031 µg/mL (≈ 0.112 µM); MIC (Neisseria gonorrhoeae; [21]): 0.016 µg/mL (≈ 0.0579 µM); MIC (Neisseria gonorrhoeae; [22]): 0.031 µg/mL (≈ 0.112 µM); In vivo Antimalarial Activity ([2]; Dosage Level 40 mg/kg): Active
CC(=NNC(=S)N1CCCCC1C)c1ccccn1 (centres unmarked) [B, 2-Methylpiperidine-1-thiocarboxylic acid 2-[1-(2-pyridyl)ethylidene]hydrazide]												1 (≈ 3.62 µM)	1 (≈ 3.62 µM)	1 (≈ 3.62 µM)	57	0.062 (≈ 0.224 µM)	0.062 (≈ 0.224 µM)	0.125 (≈ 0.452 µM)	0.062 (≈ 0.224 µM)	0.5 (≈ 1.81 µM)	In vivo Antimalarial Activity ([2]; Dosage Level 160 mg/kg): Active; In vivo Antimalarial Activity ([2]; Dosage Level 320 mg/kg): Toxic; In vivo Antimalarial Activity ([2]; Dosage Level 640 mg/kg): Toxic; MIC (Staphylococcus aureus; [15]): 1 µg/mL (≈ 3.62 µM); MIC (Staphylococcus aureus; [16]): 1 µg/mL (≈ 3.62 µM)
